Measured values as given in US6852333B1, “Agents and methods for promoting production gains in animals” (The Horticulture and Food Research Institute of New Zealand …, priority 1999, dated 2005).

What was measured:
[1] = tested on: faecal egg count (parasites); experiment: Nitric oxide donor and anthelmintic efficacy, time until faecal egg count rose to around 600 (Experiment 15); format: in vivo, sheep; conditions: 0.0001 g per kg liveweight oral with anthelmintic every four months
From the text: In a separate experiment 20 sheep (mixed male and females) received standard anthelmintic treatments similar to experiments 3 and 4, with anthelmintics and treatments given every four months. Treatment in 10 of these animals consisted of the anthelmintic dosing and S-nitroso-N-acetylpenicillamine, a nitric oxide donor at a dose of 0.0001 g per kg liveweight in an oral form. The other 10 received the anthelmintic and a glucose control. Anthelmintic successfulness in terms of time from treatment until faecal egg count rose to around 600 as described in experiments 3 and 4 was examined. […] FIG. 22 illustrates this.

[2] = Broiler chicken trial: weight and feed conversion ratio with SAC in feed (Experiment 7); format: in vivo, broiler chickens
From the text: This work aimed to investigate the effectiveness of an antistress containing composition or a stress alleviating composition (conveniently referred to as “SAC”), ([…], vitamin C and long chain amino acid mix) versus a calorie adjusted control, in lowering the physiological responses to stress and promoting growth in an intensive production systems (broiler chickens). In addition, the effect of the SAC agent in combination with existing industry feed additives (Performance enhancers: antibiotics and indigestible carbohydrates (oligosaccharides) was investigated in broiler chickens.
432 day-old male broiler chicks were used in the experiment carried out over six weeks in a poultry research unit. Chicks were assigned at random to one of 12 groups: • Group 1—Control 32° C. (n=36) • Group 2—Control 28° C. (n=36) • Group 3—Experimental Formulation A 32° C. (n=36) • Group 4—Experimental Formulation A 28° C. (n=36) • Group 5—Experimental Formulation B 28° C. (n=36) • Group 6—Experimental Formulation C 28° C. (n=36) • Group 7—Performance Enhancer 32° C. (n=36) • Group 8—Performance Enhancer 28° C. (n=36) • Group 9—Oligosaccharide 32° C. (n=36) • Group 10—Oligosaccharide 28° C. (n=36) • Group 11—Experimental Formulation A+Performance Enhancer 32° C. (n=36) • Group 12—Experimental Formulation A+Oligosaccharide 32C (n=36)
Once selected, groups of 6 birds were housed per cage in heated brooders (i.e. One treatment group (36 birds) per 6 cages). Each group had access to pelleted feed (NRM New Zealand) in excess of requirements during the trial conforming to standard poultry use Ross broiler specification), and water was freely available. During the manufacturing of the feed the following treatments were included.
SAC Agent (2-methyl-1,2-di-3-pyridyl-1-propanone, vitamin C, valine, isoleucine and leucine mixture), mixed with a glucose-based polymer carrier (0.01 g drug to 1 g of carrier) before addition to the feed in the following doses. • Formulation A (per kg feed): • 0.01 g 2-methyl-1,2-di-3-pyridyl-1-propanone • 0.1 g Vitamin C • 5 mg Valine, isoleucine and leucine • Formulation B (per kg feed): • 0.005 g 2-methyl-1,2-di-3-pyridyl-1-propanone • 0.05 g Vitamin C • 0.5 mg Valine, isoleucine and leucine • Formulation C (per kg feed): • 0.001 g 2-methyl-1,2-di-3-pyridyl-1-propanone • 0.01 g Vitamin C • 0.1 mg Valine, isolcucine and leucine • Performance Enhancers: • (Avilamycin (Surmax): Elanco Animal Health, Indianapolis, USA) • Dose: <0.2 g/kg (antibiotic concentration of 0.1 (g/ml). • Mannan oligosaccharide—indigestible carbohydrate (Bio-Mos: Alltech, Inc.USA) • Dose: 1 g/kg
Daily feed intake was recorded for each group of birds, and all birds were weighed weekly.
Birds were either kept at optimum temperature levels (32° C.) or exposed to cold stress (28° C.) from day 1 until day 14 of the trial. After 14 days they were removed to larger raised horizontal cages where all groups were maintained at 21° C. The birds remained in these cages for the remainder of the trial after which time they were slaughtered. After slaughter, meat from 6 birds per group was analysed for fat composition.

[3] = tested on: nematode; experiment: Anthelmintic efficacy (faecal egg / nematode counts) in stressed sheep given metyrapone (Experiments 3-5); format: in vivo
From the text: In a first series of experiments, sheep were divided into pairs from initial twins. All the animals were grazed together, on the same paddocks, from pairing through to the end of the trial. They were thus exposed to the same potential parasite load and the same access to feed and water. The animals were also genetically similar (i.e at least one shared parent). Experiments were begun when the animal was 3 months of age. One half of the pairings were rounded up once a week and run through a race (control group). Any normal farm maintenance that was needed was done at this time, so that the time that animals may have been held was variable from week to week but consistent across the entire group and with the experimental group (see below). Faecal samples were also collected and both total egg and nematode egg counts calculated, and visual inspection for ectoparasites made. The other half of the pairings (chronic stress group) were exposed to the same handling […] (consistent with the single weekly procedure above) and in addition to this were run around a paddock by either a human or dog (alternating) for 10 minutes. In this manner a mild, chronic, handling stress was imposed on these animals. Races and handling facilities were cleaned between animal movements to avoid any risk of parasitic contamination. Animals were subject to the same anthelmintic treatments consisting of three pour-on (Ivomec pour on, MSD 1 ml per 50 kg), three oral (Endex, Novartis—1 ml per 5 kg) and three injectable treatments (levamisole. 7.5 mg/kg) per year (every four months). In a similar parallel experiment the control group was identical and the paired group to this control (acute stress) received identical treatment to the control group and in addition an acute stress one day prior to anthelmintic treatment. This consisted of chasing the group three times during the day with a dog for 15 min duration each time. The faecal egg count and ectoparasite assessment was the same in both groups at time of the first experimental anthelmintic treatment. […]

[4] = Growth rate of sheep given metyrapone with anthelmintic treatment (Experiments 3 and 6); format: in vivo; conditions: no additional stresses; metyrapone 5 mg/kg at the time of anthelmintic treatment
From the text: In a first series of experiments, sheep were divided into pairs from initial twins. All the animals were grazed together, on the same paddocks, from pairing through to the end of the trial. They were thus exposed to the same potential parasite load and the same access to feed and water. The animals were also genetically similar (i.e at least one shared parent). Experiments were begun when the animal was 3 months of age. One half of the pairings were rounded up once a week and run through a race (control group). Any normal farm maintenance that was needed was done at this time, so that the time that animals may have been held was variable from week to week but consistent across the entire group and with the experimental group (see below). Faecal samples were also collected and both total egg and nematode egg counts calculated, and visual inspection for ectoparasites made. Animals were subject to the same anthelmintic treatments consisting of three pour-on (Ivomec pour on, MSD 1 ml per 50 kg), three oral (Endex, Novartis—1 ml per 5 kg) and three injectable treatments (levamisole. 7.5 mg/kg) per year (every four months). In a similar set of experiments to experiment 1, the animals in the chronic stress group also all received a chemical substance metyrapone (in an oral form at 5 mg/kg live weight) at the time of anthelmintic treatment. […]

[5] = Dose response and dose composition, growth promotant effects (Experiment 9); format: in vivo, sheep, poultry, pigs and rats; conditions: oral three times over six weeks
Experimental: (§1) In four different species (sheep, poultry, pigs and rats) different dosages of the compound metyrapone alone or in combination with vitamin C, isoleucine, leucine, valine were tested for growth promotant effects.
(§2) These mixtures were administered by oral routes three times over six weeks and a control group was administered a glucose mix at the same time (calorie equivalent). Animal growth in terms of liveweight gains were measured over periods of time, as was feed consumed.

[6] = Dose response of metyrapone, growth promotant effects in pigs (Experiment 9); format: in vivo; conditions: oral three times over six weeks
Experimental: as §1, §2

[7] = tested on: faecal count (parasites); experiment: Increase of anthelmintic effect, monthly faecal count (Experiment 10); format: in vivo, sheep; conditions: anthelmintics and agents given every four months; faecal count each month
Experimental: In a further experiment similar to that described in experiments 3 and 4 the increased anthelmintic effect from vitamin C, isoleucine, valine and leucine alone or in combination with metyrapone, and metyrapone and pyrrolopyrimidine was tested. Anthelmintics and these agents were given every four months and faecal count calculated each month in between treatments.

[8] = Reproductive success of ewes (Experiment 11); format: in vivo, sheep; conditions: over 3 seasons following original metyrapone treatments, vs control group
From the text: Female sheep (20 ewes) chosen from original experiments in experiments 4, 5 and 6 were studied for seasonal reproductive success for up to 3 seasons following the original metyrapone treatments. These animals received no further metyrapone treatments and were kept in a flock with a similar selected group of 20 control age and weight matched counterparts that had not received metyrapone treatment.
In a separate experiment using the different sheep with no previous exposure to treatments, 20 age and bodyweight matched ewes were run as a flock. Ten of these ewes received three treatments of metyrapone and vitamin C, isoleucine, leucine and valine at a dosage of 0.001 g metyrapone/0.01 g vitamin c, 0.0005 g each of valine, isoleucine and leucine per kg liveweight in an oral form without anthelmintics. These three treatments occurred one month prior to conception, in the first and third trimester of pregnancy. The remaining ten ewes received a similar handling and control administration of a glucose-amino acid mixture.

[9] = Stress relieving compounds given with anthelmintic, growth of ewes over 12 months (Experiment 13); format: in vivo, sheep; conditions: for effect on growth compared to control animals (FIG. 20): ewes treated every 2 months with anthelmintic plus agent; for effect on growth: alone or added to metyrapone
Experimental: […] A further 7 ewes received either astressin 0.0005 g or astressin and metyrapone (astressin at 0.0005 g and metyrapone at 0.001 g) and the vitamin C and amino acid mixture as above.
Bodyweight was measured monthly and animals were treated equivalently in all other aspects.

[10] = week 2, end of the cold stress period 28° C.
[11] = week 3, after the stressor was removed (21° C.)
[12] = week 4, after the stressor was removed (21° C.)

## CC(=O)N[C@H](C(=O)O)C(C)(C)SN=O (racemic) [S-nitroso-N-acetylpenicillamine]
[1]
  effectiveness of anthelmintic (time until faecal egg count rose to around 600): better effectiveness of anthelmintic than control animals

## COC[C@H]1O[C@@H](OC2OC[C@@H]3O[C@]4(O[C@H]3[C@H]2OC(=O)C(C)C)O[C@H](C)[C@@](O)(C(C)=O)[C@@H]2OCO[C@H]24)[C@@H](OC)[C@@H](O)[C@@H]1O[C@@H]1O[C@H](C)[C@H](OC)[C@H](O[C@H]2C[C@@]3(C)OC4(C[C@@H](O)[C@H](O[C@H]5C[C@@H](O)[C@H](OC(=O)c6c(C)c(Cl)c(O)c(Cl)c6OC)[C@@H](C)O5)[C@@H](C)O4)O[C@@H]3[C@@H](C)O2)[C@H]1O (some centres unmarked) [antibiotic performance enhancer, Avilamycin]
[2]; exposed to cold stress, during cold stress and afterwards
  rate of growth in comparison to birds given the SAC: lower rate of growth
[2]; week 1, cold stress 28° C.
  weight heavier than control birds: 3.5 g
  weight heavier than control birds, percent: 2.0%
[2]; [10]
  weight heavier than control birds: 6.3 g
  weight heavier than control birds, percent: 1.3%
[2]; [11]
  weight heavier than control birds: 42.6 g
  weight heavier than control birds, percent: 4.5%
[2]; [12]
  weight heavier than control birds: 35.2 g
  weight heavier than control birds, percent: 2.2%

## CC(C)(C(=O)c1cccnc1)c1cccnc1 [metyrapone, 2-methyl-1,2-di-3-pyridyl-1-propanone]
[3]; acute stress group receiving metyrapone oral 5 mg/kg with anthelmintic
  differences between acute stress and control groups: no differences were seen between the acute and control groups
[3]; chronic stress group, metyrapone oral 5 mg/kg live weight at the time of anthelmintic treatment
  efficacy of anthelmintics compared with the non-stressed groups: same efficacy of anthelmintics as the non-stressed groups
[3]; one treatment including metyrapone, chronic and acute stressed animals vs control group
  time until nematode counts exceeded recommended number for dosing: no differences to the control group
[4]
  net gain, growth over the year (mean): 18 kg
[5]; all species except pigs
  % gain in production with increase in dose: an increase in gain was seen with an increase in dose of metyrapone levelling out
[5]; all species
  growth (liveweight gain): increased growth
[6]
  % gain in production with dose: a low and a high dose were effective however a mid-range dose did not produce the same gains
[7]
  anthelmintic effectiveness (faecal count): more effective than with the anthelmintic alone
[8]
  birthweight of lambs: slightly greater than seen in the control group
[9]; 0.0001 g/kg metyrapone
  Kg of Growth in 12 months: 13 ± 3 kg
[9]; 0.0001 g/kg metyrapone + control
  Kg of Growth in 12 months: 14 ± 3 kg
[9]
  effect on growth compared to control animals (FIG. 20): larger effect

## CC#C[C@]1(O)CC[C@H]2[C@@H]3CCC4=CC(=O)CCC4=C3[C@@H](c3ccc(N(C)C)cc3)C[C@@]21C [mifepristone]
[9]; 0.0001 g/kg mifepristone
  Kg of Growth in 12 months: 4 ± 4 kg
[9]; 0.0005 g/kg mifepristone
  Kg of Growth in 12 months: 8 ± 2 kg
[9]
  effect on growth compared to control animals (FIG. 20): small positive effect
[9]; mifepristone dose 0.0001 g/kg
  effect on growth: no effect compared to control
[9]; mifepristone dose 0.0005 g/kg
  effect on growth: small increase in growth over control treatments

## CCCN(CCC)C(=O)C(CCC(=O)O)NC(=O)c1ccccc1 (centres unmarked) [proglumide]
[9]
  effect on growth compared to control animals (FIG. 20): small positive effect

## astressin
[9]; 0.0005 g/kg astressin
  Kg of Growth in 12 months: 10 ± 4 kg
